Activity calls are given as the source filed them. No cut-off for these calls is given here.
How the values were obtained:
Pyricularia grisea [1] = experiment: microbe, parasite or virus in culture; assay type: functional; conditions: P-2
Pyricularia grisea [2] = experiment: microbe, parasite or virus in culture; assay type: functional; conditions: P-2; remark: listed apart in the source
Pyricularia grisea [3] = experiment: microbe, parasite or virus in culture; assay type: functional; conditions: P-2; remark: listed apart in the source
Pyricularia grisea [4] = experiment: microbe, parasite or virus in culture; assay type: functional; conditions: P-2; remark: listed apart in the source
[5] = Lipophilicity, log P of the compound; assay type: physicochemical; conditions: octanol/water
Pyricularia grisea [6] = experiment: Inhibition of mycelial growth of Magnaporthe grisea P-2 assessed as mycelial dry weight at 0.1 to 100 ug/ml at 25 degC; assay type: functional, organism-based
Pyricularia grisea [7] = experiment: Fungicidal activity against Magnaporthe grisea P-2 in rice plant assessed as control of rice blast disease at 100 ug/ml measured after 14 days of treatment at 26 +/- 2 degC measured afterr 5 days; assay type: functional, organism-based
Pyricularia grisea [8] = experiment: Fungicidal activity against Magnaporthe grisea P-2 in rice plant assessed as control of rice blast disease at 0.5 ug/ml at 26 +/- 2 degC measured after 5 days; assay type: functional, organism-based
Blumeria hordei = experiment: Fungicidal activity against Blumeria graminis f. sp. hordei assessed as control of barley powdery mildew at 50 ug/ml; assay type: functional, organism-based
Puccinia triticina = experiment: Fungicidal activity against Puccinia triticina assessed as control of wheat leaf rust disease at 50 ug/ml; assay type: functional, organism-based
Phytophthora infestans = experiment: Fungicidal activity against Phytophthora infestans assessed as control of tomato late blight disease at 50 ug/ml; assay type: functional, organism-based
Botrytis cinerea = experiment: Fungicidal activity against Botryotinia fuckeliana assessed as control of cucumber gray mold disease at 50 ug/ml; assay type: functional, organism-based
Rhizoctonia solani = experiment: Fungicidal activity against Rhizoctonia solani assessed as control of rice sheath blight disease at 50 ug/ml; assay type: functional, organism-based
Pyricularia grisea [9] = experiment: Fungicidal activity against Magnaporthe grisea P-2 in rice plant assessed as control of rice blast disease at 50 ug/ml; assay type: functional, organism-based

Cc1cccc2sc3nncn3c12 [TRICYCLAZOLE]
inhibition at 10 µg/mL (Pyricularia grisea [1]): 0% | inhibition at 1 µg/mL (Pyricularia grisea [2]): 0% | inhibition at 10 µg/mL (Pyricularia grisea [3]): 7.2% | inhibition at 1 µg/mL (Pyricularia grisea [4]): 3.8%

CCOP(=O)(Sc1ccccc1)Sc1ccccc1 [EDIFENPHOS]
inhibition at 1 µg/mL (Pyricularia grisea [2]): 44.8% | inhibition at 10 µg/mL (Pyricularia grisea [3]): 100% | inhibition at 1 µg/mL (Pyricularia grisea [4]): 76.4%

CN(CC[C@H](N)CC(=O)N[C@H]1C=C[C@H](n2ccc(N)nc2=O)O[C@@H]1C(=O)O)C(=N)N [BLASTICIDIN_S]
inhibition at 1 µg/mL (Pyricularia grisea [2]): 25.2% | inhibition at 10 µg/mL (Pyricularia grisea [3]): 100% | inhibition at 1 µg/mL (Pyricularia grisea [4]): 76.6%

Cc1cccc(NC(=O)Cn2c(COc3c(C)cc(Br)cc3C)noc2=O)c1
logP [5]: 6.01 | inhibition at 10 µg/mL (Pyricularia grisea [1]): 0% | inhibition at 1 µg/mL (Pyricularia grisea [2]): 0% | inhibition at 10 µg/mL (Pyricularia grisea [3]): 0% | inhibition at 1 µg/mL (Pyricularia grisea [4]): 2.9% | inhibition (Pyricularia grisea [6]): inactive | Activity (Pyricularia grisea [7]): Active | Activity (Pyricularia grisea [8]): Active | Activity (Blumeria hordei): inactive | Activity (Puccinia triticina): inactive | Activity (Phytophthora infestans): inactive | Activity (Botrytis cinerea): inactive | Activity (Rhizoctonia solani): inactive | Activity (Pyricularia grisea [9]): Active
